Test results as given in PubChem BioAssay AID720587 (Broad Institute, 2013).
Active and inactive are the calls of the source.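 Rule for the calls: active = fitted curve reaches -35% activity change at a concentration below twice the top valid dose tested; inactive = the rest, including effects opposite to the expected direction.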

assay: EWS/Fli1-dependent A673 cell killing, confirmation, CellTiter-Glo luminescence, cherry-pick retest (AID 720587); conditions: A673 Ewing sarcoma viability, CellTiter-Glo ATP luminescence, 72 h; at 8 µM (top of the series)

Row | Compound | activity change, negative = cytotoxicity
1 | COc1ccc(NS(=O)(=O)c2cc(NC(=O)CNC(=O)c3cccc(OC)c3)ccc2C)cc1 | 12.2% (inactive)

same assay, conditions: A673 Ewing sarcoma viability, CellTiter-Glo ATP luminescence, 72 h; at 23.5 µM (top of the series)

Row | Compound | activity change, negative = cytotoxicity
2 | O=S(=O)(c1ccc(F)cc1)N1C[C@H]2[C@@H](c3ccccc31)[C@H](CO)N2Cc1ccccc1Cl | -16.4% (inactive)
3 | COC(=O)C[C@@H]1CC[C@@H]2[C@H](COc3ccc(NC(=O)c4cccc(F)c4)cc3C(=O)N2C)O1 | -1.57% (inactive)
4 | CCCNC(=O)N1[C@H](C#N)[C@H](c2ccc(C#Cc3cccc(F)c3)cc2)[C@H]1CO | 5% (inactive)
5 | N#C[C@H]1[C@H](c2ccc(C#Cc3ccccc3F)cc2)[C@@H](CO)N1C(=O)C1CCCCC1 | -7.62% (inactive)

same assay, conditions: A673 Ewing sarcoma viability, CellTiter-Glo ATP luminescence, 72 h; at 26 µM (top of the series)

Row | Compound | activity change, negative = cytotoxicity
6 | COc1ccccc1NS(=O)(=O)c1cc(NC(=O)c2cc3ccccc3oc2=O)ccc1C | 13% (inactive)
7 | Cc1cc2sc3ccc(C#CC4(O)CCCCC4)cc3c(=O)c2cc1C | -2.73% (inactive)
8 | C[C@@H]1CCCCO[C@@H](CN(C)C(=O)Cc2ccccc2)[C@@H](C)CN([C@@H](C)CO)C(=O)c2cc(NS(=O)(=O)c3ccc(F)cc3)ccc2O1 | 7.89% (inactive)
9 | CC(=O)c1ccc(N=C2C(=O)Nc3ccccc32)cc1 | -4.29% (inactive)
10 | COc1ccc(NC(=O)N(C)[C@H]2C[C@H]3c4[nH]c5ccccc5c4CCN3C(=O)[C@H]2CO)cc1 | 5.76% (inactive)
11 | CCOc1ccc(-c2noc(CCC(=O)O)n2)cc1 | 6.68% (inactive)
12 | c1ccc(-c2ccc([C@H]3[C@H]4CNC[C@@H]3N4Cc3cc(-c4ccccc4)on3)cc2)cc1 | -11.9% (inactive)
13 | COc1ccc(/C=N/Nc2ccc(C(=O)O)cc2)cc1Br | -2.31% (inactive)
14 | CC(C)CN(C(=O)CN1CCOCC1)c1c(N)n(CC(C)C)c(=O)[nH]c1=O | -1.6% (inactive)
15 | COc1ccc(Nc2ncnc3ccc(Br)cc23)c(OC)c1 | -5.17% (inactive)
16 | COC(=O)C[C@@H]1CC[C@@H]2[C@@H](COc3ccc(NC(=O)Cc4cccs4)cc3C(=O)N2C)O1 | -23.4% (inactive)
17 | Cc1ccsc1C(=O)OCC(=O)NCCC1=CCCCC1 | 2.01% (inactive)
18 | COc1ccc(-c2sc3ccccc3c2-c2ccc(OCCN3CCCCC3)cc2)cc1 | -3.21% (inactive)
19 | COc1cc(/C=N/NS(=O)(=O)c2ccc3ccccc3c2)ccc1OCc1ccc(C(=O)O)cc1 | 0.172% (inactive)
20 | O=C(NC(=O)c1ccccc1)Nc1ccccc1 | -3.17% (inactive)
21 | COc1ccc(Cl)cc1S(=O)(=O)Nc1ccc2c(c1)n(C)c(=O)n2C | -1.58% (inactive)
22 | COC(=O)c1cccc(NC(=O)NC(=O)c2ccc(Cl)cc2)c1 | -6.08% (inactive)
23 | CCc1cnc(N2[C@H](C#N)[C@H](c3ccc(C#Cc4ccccc4F)cc3)[C@H]2CO)s1 | -10.8% (inactive)
24 | CC1=NC(=O)C(N=Nc2cccc(C(=O)O)c2)N1c1ccccc1 (stereo unspecified) | -2.93% (inactive)
25 | O=C(O)c1ccc2cc(-c3ccccc3)[nH]c2c1 | -2.41% (inactive)
26 | O=C1Nc2ccccc2C1=Nc1ccccc1-c1ccccc1 | -7.56% (inactive)
27 | COC(=O)C[C@@H]1CC[C@@H]2[C@H](COc3ccc(NC(=O)c4cc(F)cc(F)c4)cc3C(=O)N2C)O1 | -0.378% (inactive)
28 | CN(C)C(=O)c1cccc(-c2ccc(C3[C@@H]4CN(Cc5nccs5)C[C@H]3N4)cc2)c1 (stereo partly specified) | -4.24% (inactive)
29 | CCCc1cc(=O)oc2c3c(c4c(c12)OC(C)(C)C=C4)OC(C)C(C)C3O (stereo unspecified) | -3.35% (inactive)
30 | CO[C@H]1CN(C)C(=O)c2cc(NC(=O)NC(C)C)ccc2OC[C@H](C)N(Cc2ccc(-c3ccccn3)cc2)C[C@@H]1C | -4.3% (inactive)
31 | COc1ccc(C/C(N)=N/OC(C)=O)cc1OC | 0.039% (inactive)

Row | Compound | activity change, negative = cytotoxicity
32 | COc1ccc2oc(-c3ccccc3)cc(=O)c2c1 | -12.3% (inactive)
33 | C/C(=N\Nc1cccc2cccnc12)c1ccccn1 | -0.624% (inactive)
34 | O=C(O)c1cccc(N/N=C/c2cccs2)c1 | -8.12% (inactive)
35 | C(=N\Nc1ccc2ccccc2n1)/c1ccc2c(c1)OCCO2 | -22.2% (inactive)
36 | N#C[C@@H]1[C@H](c2ccc(C#Cc3cccc(F)c3)cc2)[C@@H](CO)N1C(=O)C1CCCC1 | -2.07% (inactive)
37 | O=C(O)c1ccc(N/N=C/c2c(F)cccc2Cl)cc1 | -4.19% (inactive)
38 | CCCn1nnc(NC(=S)NC(=O)C(C)(C)C)n1 | -3.83% (inactive)
39 | CC(C)(C)c1ccc(Oc2ccc(NC(=O)C3CC=CCC3C(=O)O)cc2)cc1 (stereo unspecified) | 6.05% (inactive)
40 | COc1cc(/C=N/NC(=O)c2csc3c2CCCC3)cc(OC)c1O | 0.143% (inactive)
41 | Cc1cc(-c2nc3cc(F)ccc3s2)ccc1N | -13.6% (inactive)
42 | C[C@@H]1CN([C@H](C)CO)C(=O)c2cc(NC(=O)CCCCCC(=O)Nc3ccccc3N)ccc2O[C@H]1CN(C)S(=O)(=O)c1ccc(Cl)cc1 | -2.24% (inactive)
43 | Cc1cc(C(=O)CN2C(=O)c3ccccc3S2(=O)=O)c(C)n1C(C)C | 21.4% (inactive)
44 | CCCNC(=O)N1[C@H](C#N)[C@H](c2ccc(C#Cc3ccc(F)cc3)cc2)[C@H]1CO | -13.6% (inactive)
45 | O=C(NC1CCCC1)C(c1ccccc1)n1c(CSCCOc2ccccc2)nc2ccccc21 (stereo unspecified) | -7.19% (inactive)
46 | O=C(O)c1ccc(N/N=C/c2c[nH]c3ccccc23)cc1 | -1.6% (inactive)
47 | CC(=O)Nc1cc(C(=O)NCc2ccco2)ccc1Sc1ccc(F)cc1 | 8.55% (inactive)
48 | CCOc1ccc(-c2cc(CCCC(=O)NCc3ccc(C)cc3)no2)cc1 | -9.1% (inactive)
49 | Cc1c(-c2nc(-c3ccc(C(C)(C)C)cc3)no2)n(C)oc1=O | 2.17% (inactive)
50 | O=C(O)c1ccc(N/N=C/c2cc(Br)cs2)cc1 | -5.62% (inactive)
51 | C/C(=N\OCc1cccc(C(=O)O)c1)c1ccc(Cl)cc1 | -3.02% (inactive)
52 | O=C1C(=O)N(Cc2cccs2)c2ccccc21 | -4.57% (inactive)
53 | COc1cc(OC)cc(-c2cc3nc(C)c(CCC(=O)O)c(C)n3n2)c1 | 0.866% (inactive)
54 | CCOC(=O)c1c(-c2ccc(C)cc2)csc1NC(=O)CCN1CCOCC1 | 3.44% (inactive)
55 | COc1ccc(C(=O)Nc2cccc(C(=O)N/N=C/c3ccc(OC)cc3OC)c2)cc1 | -1.59% (inactive)
56 | Cc1cc(C(=O)NNC(=O)c2ccc(S(=O)(=O)N(C)C)cc2)c(C)o1 | 1% (inactive)
57 | Nc1ccc2c(c1)OC1(CCCC1)O2 | -14.9% (inactive)

Row | Compound | activity change, negative = cytotoxicity
58 | Cc1ccc(Cl)cc1NC(=O)Cn1cc(C(F)(F)F)cc(Cl)c1=O | 10.1% (inactive)
59 | COc1cccc(S(=O)(=O)N(C)C[C@H]2OCc3cnnn3CCCC(=O)N([C@@H](C)CO)C[C@H]2C)c1 | 0.226% (inactive)
60 | CCC(C)Cn1c(O)cc2nn(-c3nc4ccccc4s3)c(=O)c-2c1C (stereo unspecified) | -13.1% (inactive)
61 | C=CC[n+]1c(-c2ccc(C)cc2)csc1Nc1ccc(NC(C)=O)cc1 | -9.93% (inactive)
62 | CCOc1ccc(/C=C2\CCc3ccccc3C2=O)cc1 | -1.55% (inactive)
63 | O=C(Cc1nn[nH]n1)c1ccccc1O | 0.33% (inactive)
64 | CCNC(=O)[C@@H]1[C@@H](CO)[C@@H]2Cn3c(ccc(C4=CCCCC4)c3=O)[C@H]1N2CC | -1.43% (inactive)
65 | O=C(Nc1nc(-c2ccc(F)c(F)c2)cs1)c1ccc(OCC2CCCO2)cc1 (stereo unspecified) | 5.7% (inactive)
66 | COc1ccc(CCC(C)NCC2CCCCC2)cc1 (stereo unspecified) | 2.42% (inactive)
67 | N/C(Cc1nc(-c2ccc(F)cc2)cs1)=N\O | -2.03% (inactive)
68 | CCn1c(C)cc(C(=O)CN2C(=O)c3ccccc3S2(=O)=O)c1C | 9.42% (inactive)
69 | Cc1ccc(S(=O)(=O)N(C)C[C@H]2Oc3c(cccc3N(C)C)C(=O)N([C@@H](C)CO)C[C@@H]2C)cc1 | -1.85% (inactive)
70 | COc1ccc2oc(C(=O)NCCc3ccccc3)c(C)c2c1 | -2.64% (inactive)
71 | C/C(=N\N(c1ccccc1)c1ccccc1)c1ccco1 | -1.2% (inactive)
72 | CCc1ccc(/C=C2\SC(=S)N(CCC(=O)Nc3cc(C)on3)C2=O)cc1 | 6.27% (inactive)
73 | Cc1ccc(Cc2c(-c3ccco3)nc3c(C)cc(Br)cn23)cc1 | 2.77% (inactive)
74 | COc1cc(C(c2c(C)[nH][nH]c2=O)c2c(C)[nH][nH]c2=O)ccc1OC(C)C | -4.73% (inactive)
75 | COc1ccc(C(=O)CN2C(=O)c3ccccc3S2(=O)=O)cc1 | 1.43% (inactive)
76 | Cc1cc(Br)ccc1N=C1C(=O)Nc2ccccc21 | -19% (inactive)
77 | O=C1C(=O)N(CCS(=O)(=O)c2ccccc2)c2ccccc21 | 12.4% (inactive)
78 | S=C(NCCN1CCOCC1)Nc1ccccc1Cl | 3% (inactive)
79 | CC(=O)c1ccc(N(C(=O)Cn2nnc3ccccc32)C(C(=O)NCc2ccccc2)c2ccccn2)cc1 (stereo unspecified) | 3.66% (inactive)
80 | O=C1C(=O)N(CCS(=O)(=O)c2ccccc2)c2ccc(Cl)cc21 | -5.89% (inactive)
81 | Cc1ccc(NC(=O)COC(=O)c2ccc3c(c2)OCO3)cc1S(=O)(=O)N1CCCCC1 | -4.65% (inactive)
